# Laboratory results from patent publication US9695155B2, “Herbicidal substituted pyrimidinyloxy benzene compounds” (E. I. DU PONT DE NEMOURS AND COMPANY, priority 2013, dated 2017).
# Experiments:
# giant foxtail [1] = assay: Test A postemergence; assay type: in vivo, Setaria faberii
# How it was run: (§1)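 Greenhouse pot test, loam/sand soil. Formulation: non-phytotoxic solvent mix plus surfactant. Pre: directed spray onto soil after sowing. Post: plants at 1–2 leaf, 2–10 cm. Rated visually vs untreated controls at ~10 d, 0 (no effect) to 100 (complete control).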
# blackgrass = assay: Test A postemergence; assay type: in vivo, Alopecurus myosuroides
# How it was run: as §1
# Italian ryegrass [2] = assay: Test A preemergence; assay type: in vivo, Lolium multiflorum; settings: for Ryegrass, Italian plant response rating (0 to 100 scale): 125 g ai/ha; for Plant response rating, Ryegrass, Italian: 31 g ai/ha, visual, approximately 10 days
# How it was run: as §1
# Italian ryegrass [3] = assay: Test A postemergence; assay type: in vivo, Lolium multiflorum
# How it was run: as §1
# galium = assay: Test A postemergence; assay type: in vivo, Galium aparine
# How it was run: as §1
# pigweed [4] = assay: Test A postemergence; assay type: in vivo, Amaranthus retroflexus
# How it was run: as §1
# wheat = assay: Test A postemergence; assay type: in vivo, Triticum aestivum
# How it was run: as §1
# giant foxtail [5] = assay: Test A preemergence; assay type: in vivo, Setaria faberii; settings: for Foxtail, Giant plant response rating (0 to 100 scale): 125 g ai/ha; for Plant response rating, Foxtail, Giant: 31 g ai/ha, visual, approximately 10 days
# How it was run: as §1
# barnyardgrass [6] = assay: Test B flooded paddy test; assay type: in vivo, Echinochloa crus-galli; settings: Flood, 250 g ai/ha; 0 to 100 scale where 0 is no effect and 100 is complete control
# How it was run: (§2)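 Visual ratings on a 0 to 100 scale, where 100 means complete control, compared treated plants with controls after 13 to 15 days in a greenhouse. Treatment went into paddy water 3 cm deep over the soil, applied to plants at the 2-leaf stage.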
# Heteranthera limosa = assay: Test B flooded paddy test; assay type: in vivo; settings: Flood, 250 g ai/ha; 0 to 100 scale where 0 is no effect and 100 is complete control
# How it was run: as §2
# kochia [7] = assay: Test A preemergence; assay type: in vivo, Kochia scoparia; settings: for Kochia plant response rating (0 to 100 scale): 125 g ai/ha; for Plant response rating, Kochia: 31 g ai/ha, visual, approximately 10 days
# How it was run: as §1
# barnyardgrass [8] = assay: Test A postemergence; assay type: in vivo, Echinochloa crus-galli
# How it was run: as §1
# barnyardgrass [9] = assay: Test A preemergence; assay type: in vivo, Echinochloa crus-galli; settings: for Barnyardgrass plant response rating (0 to 100 scale, 0 is no effect, 100 is complete control): 125 g ai/ha; for Plant response rating, Barnyardgrass: 31 g ai/ha, visual, approximately 10 days
# How it was run: as §1
# sedge, umbrella = assay: Test B flooded paddy test; assay type: in vivo, Cyperus difformis; settings: Flood, 250 g ai/ha; 0 to 100 scale where 0 is no effect and 100 is complete control
# How it was run: as §2
# ragweed [10] = assay: Test A postemergence; assay type: in vivo, Ambrosia elatior
# How it was run: as §1
# ragweed [11] = assay: Test A preemergence; assay type: in vivo, Ambrosia elatior; settings: for Ragweed plant response rating (0 to 100 scale): 125 g ai/ha; for Plant response rating, Ragweed: 31 g ai/ha, visual, approximately 10 days
# How it was run: as §1
# corn = assay: Test A postemergence; assay type: in vivo, Zea mays
# How it was run: as §1
# kochia [12] = assay: Test A postemergence; assay type: in vivo, Kochia scoparia
# How it was run: as §1
# rice = assay: Test B flooded paddy test; assay type: in vivo, Oryza sativa; settings: Flood, 250 g ai/ha; 0 to 100 scale where 0 is no effect and 100 is complete control
# How it was run: as §2
# pigweed [13] = assay: Test A preemergence; assay type: in vivo, Amaranthus retroflexus; settings: for Pigweed plant response rating (0 to 100 scale): 125 g ai/ha; for Plant response rating, Pigweed: 31 g ai/ha, visual, approximately 10 days
# How it was run: as §1
# [14] = 125 g ai/ha, 0 to 100 scale where 0 is no effect and 100 is complete control
# [15] = 500 g ai/ha, 0 to 100 scale where 0 is no effect and 100 is complete control
# [16] = 31 g ai/ha, 0 to 100 scale, 0 no effect, 100 complete control
# [17] = 125 g ai/ha, 0 to 100 scale, 0 no effect, 100 complete control
# [18] = 0 to 100 scale where 0 is no effect and 100 is complete control
smiles,measurement,setting,value
COc1ccc(C#N)c(-n2cc(Br)cn2)c1Oc1ncc(Cl)cn1 [Compound 212],"Foxtail, Giant plant response rating",giant foxtail [1]; [14],0
same,"Plant response rating, Foxtail, Giant",giant foxtail [1]; [15],50
same,Blackgrass plant response rating,blackgrass; [14],10
same,"Plant response rating, Blackgrass",blackgrass; [15],50
same,"Ryegrass, Italian plant response rating (0 to 100 scale)",Italian ryegrass [2],0
same,"Ryegrass, Italian plant response rating",Italian ryegrass [2]; [15],20
same,"Ryegrass, Italian plant response rating",Italian ryegrass [3]; [14],20
same,"Plant response rating, Ryegrass, Italian",Italian ryegrass [3]; [15],30
same,Galium plant response rating,galium; [14],10
same,"Plant response rating, Galium",galium; [15],30
same,Pigweed plant response rating,pigweed [4]; [14],20
same,"Plant response rating, Pigweed",pigweed [4]; [15],30
same,Wheat plant response rating,wheat; [14],0
same,"Plant response rating, Wheat",wheat; [15],30
same,"Foxtail, Giant plant response rating (0 to 100 scale)",giant foxtail [5],0
same,"Foxtail, Giant plant response rating",giant foxtail [5]; [15],50
same,"Plant response rating, Barnyardgrass",barnyardgrass [6],0
same,"Plant response rating, Ducksalad",Heteranthera limosa,0
same,Kochia plant response rating (0 to 100 scale),kochia [7],0
same,Kochia plant response rating,kochia [7]; [15],40
same,Barnyardgrass plant response rating,barnyardgrass [8]; [14],0
same,"Plant response rating, Barnyardgrass",barnyardgrass [8]; [15],0
same,"Barnyardgrass plant response rating (0 to 100 scale, 0 is no effect, 100 is complete control)",barnyardgrass [9],0
same,Barnyardgrass plant response rating,barnyardgrass [9]; [15],20
same,"Plant response rating, Sedge, Umbrella","sedge, umbrella",0
same,Ragweed plant response rating,ragweed [10]; [14],0
same,"Plant response rating, Ragweed",ragweed [10]; [15],10
same,Ragweed plant response rating (0 to 100 scale),ragweed [11],0
same,Ragweed plant response rating,ragweed [11]; [15],0
same,Corn plant response rating,corn; [14],0
same,"Plant response rating, Corn",corn; [15],0
same,Kochia plant response rating,kochia [12]; [14],0
same,"Plant response rating, Kochia",kochia [12]; [15],10
same,"Plant response rating, Rice",rice,0
same,Pigweed plant response rating (0 to 100 scale),pigweed [13],70
same,Pigweed plant response rating,pigweed [13]; [15],90
N#Cc1cnn(-c2c(CF)cccc2Oc2ncc(Br)cn2)c1 [Compound 243],"Plant response rating, Foxtail, Giant",giant foxtail [1]; [16],0
same,"Plant response rating, Foxtail, Giant",giant foxtail [1]; [17],10
same,"Plant response rating, Blackgrass",blackgrass; [16],0
same,"Plant response rating, Blackgrass",blackgrass; [17],30
same,"Plant response rating, Ryegrass, Italian",Italian ryegrass [2]; [18],0
same,"Ryegrass, Italian plant response rating (0 to 100 scale)",Italian ryegrass [2],0
same,"Plant response rating, Ryegrass, Italian",Italian ryegrass [3]; [16],0
same,"Plant response rating, Ryegrass, Italian",Italian ryegrass [3]; [17],0
same,"Plant response rating, Galium",galium; [16],0
same,"Plant response rating, Galium",galium; [17],10
same,"Plant response rating, Pigweed",pigweed [4]; [16],10
same,"Plant response rating, Pigweed",pigweed [4]; [17],20
same,"Plant response rating, Wheat",wheat; [16],0
same,"Plant response rating, Wheat",wheat; [17],20
same,"Plant response rating, Foxtail, Giant",giant foxtail [5]; [18],0
same,"Foxtail, Giant plant response rating (0 to 100 scale)",giant foxtail [5],100
same,"Plant response rating, Barnyardgrass",barnyardgrass [6],0
same,"Plant response rating, Ducksalad",Heteranthera limosa,30
same,"Plant response rating, Kochia",kochia [7]; [18],0
same,Kochia plant response rating (0 to 100 scale),kochia [7],90
same,"Plant response rating, Barnyardgrass",barnyardgrass [8]; [16],0
same,"Plant response rating, Barnyardgrass",barnyardgrass [8]; [17],0
same,"Plant response rating, Barnyardgrass",barnyardgrass [9]; [18],0
same,"Barnyardgrass plant response rating (0 to 100 scale, 0 is no effect, 100 is complete control)",barnyardgrass [9],30
same,"Plant response rating, Sedge, Umbrella","sedge, umbrella",0
same,"Plant response rating, Ragweed",ragweed [10]; [16],20
same,"Plant response rating, Ragweed",ragweed [10]; [17],20
same,"Plant response rating, Ragweed",ragweed [11]; [18],0
same,Ragweed plant response rating (0 to 100 scale),ragweed [11],20
same,"Plant response rating, Corn",corn; [16],0
same,"Plant response rating, Corn",corn; [17],0
same,"Plant response rating, Kochia",kochia [12]; [16],20
same,"Plant response rating, Kochia",kochia [12]; [17],30
same,"Plant response rating, Rice",rice,0
same,"Plant response rating, Pigweed",pigweed [13]; [18],0
same,Pigweed plant response rating (0 to 100 scale),pigweed [13],80
FCc1cccc(Oc2ncc(Br)cn2)c1-n1cc(I)cn1 [Compound 244],"Plant response rating, Foxtail, Giant",giant foxtail [1]; [16],0
same,"Plant response rating, Foxtail, Giant",giant foxtail [1]; [17],10
same,"Plant response rating, Blackgrass",blackgrass; [16],0
same,"Plant response rating, Blackgrass",blackgrass; [17],30
same,"Plant response rating, Ryegrass, Italian",Italian ryegrass [2]; [18],0
same,"Ryegrass, Italian plant response rating (0 to 100 scale)",Italian ryegrass [2],0
same,"Plant response rating, Ryegrass, Italian",Italian ryegrass [3]; [16],0
same,"Plant response rating, Ryegrass, Italian",Italian ryegrass [3]; [17],0
same,"Plant response rating, Galium",galium; [16],70
same,"Plant response rating, Galium",galium; [17],100
same,"Plant response rating, Pigweed",pigweed [4]; [16],20
same,"Plant response rating, Pigweed",pigweed [4]; [17],100
same,"Plant response rating, Wheat",wheat; [16],0
same,"Plant response rating, Wheat",wheat; [17],20
same,"Plant response rating, Foxtail, Giant",giant foxtail [5]; [18],0
same,"Foxtail, Giant plant response rating (0 to 100 scale)",giant foxtail [5],80
same,"Plant response rating, Barnyardgrass",barnyardgrass [6],0
same,"Plant response rating, Ducksalad",Heteranthera limosa,40
same,"Plant response rating, Kochia",kochia [7]; [18],0
same,Kochia plant response rating (0 to 100 scale),kochia [7],40
same,"Plant response rating, Barnyardgrass",barnyardgrass [8]; [16],0
same,"Plant response rating, Barnyardgrass",barnyardgrass [8]; [17],10
same,"Plant response rating, Barnyardgrass",barnyardgrass [9]; [18],0
same,"Barnyardgrass plant response rating (0 to 100 scale, 0 is no effect, 100 is complete control)",barnyardgrass [9],20
same,"Plant response rating, Sedge, Umbrella","sedge, umbrella",0
same,"Plant response rating, Ragweed",ragweed [10]; [16],0
same,"Plant response rating, Ragweed",ragweed [10]; [17],0
same,"Plant response rating, Ragweed",ragweed [11]; [18],0
same,Ragweed plant response rating (0 to 100 scale),ragweed [11],0
same,"Plant response rating, Corn",corn; [16],0
same,"Plant response rating, Corn",corn; [17],20
same,"Plant response rating, Kochia",kochia [12]; [16],20
same,"Plant response rating, Kochia",kochia [12]; [17],80
same,"Plant response rating, Rice",rice,0
same,"Plant response rating, Pigweed",pigweed [13]; [18],0
same,Pigweed plant response rating (0 to 100 scale),pigweed [13],100
